Reference: patent publication US20110294897A1, “Treating Xerophthalmia With Compounds Increasing Meibomian Gland Secretion” (Bridge Pharma, Inc., priority 2009, published 2011)
One block for each molecule: values may come before it.

What was measured:
[1] = tested on: intraocular pressure; assay: intraocular pressure in rabbits with glucose-elevated IOP; type: in vivo, rabbit; settings: 10 μL instilled, 12-15 minutes after dosing
Procedure: Intraocular pressure (IOP) was increased in conscious rabbits by intravenous injections of glucose. The test compound was administered by instillation into the conjunctival sac immediately after the glucose injection and all measurements were made approximately 12-15 minutes after dosing. […] Thus, 10 μL of solutions containing 3.5 or 7.0 or 14.0 mg/ml in Tears Naturale® were instilled into the conjunctival sac. Tears Naturale® was used as control solution. TOP was measured using a manometrically calibrated BIO-RAD Digilab pneumatonometer. Tetracaine (10 μl, 0.5%) was applied to the cornea before the IOP measurements. N=7 Dutch Belted rabbits/group (2-4 kg; M and F).

[2] = tested on: patients; settings: according to the manufacturer; cited from earlier work
[3] = tested on: Meibomian gland secretion; assay: Meibomian gland secretion in vivo (Meibometer), other agonists
Procedure: Meibomian gland secretion was measured with a Meibometer (Courage-Khazaka Electronic GmbH, 50829 Cologne) and was increased in vivo as described in Examples 6 and 7, hereinafter.

[4] = solubility in water; type: physicochemical
[5] = biological target: T1, human β3 receptors (Homo sapiens, UniProt P13945); assay: human β3 adrenergic receptor binding, [125I]CYP
T1 construct: expressed in transfected cells; host or cells: SK-N-MC cells
T1 sequence (P13945 whole entry): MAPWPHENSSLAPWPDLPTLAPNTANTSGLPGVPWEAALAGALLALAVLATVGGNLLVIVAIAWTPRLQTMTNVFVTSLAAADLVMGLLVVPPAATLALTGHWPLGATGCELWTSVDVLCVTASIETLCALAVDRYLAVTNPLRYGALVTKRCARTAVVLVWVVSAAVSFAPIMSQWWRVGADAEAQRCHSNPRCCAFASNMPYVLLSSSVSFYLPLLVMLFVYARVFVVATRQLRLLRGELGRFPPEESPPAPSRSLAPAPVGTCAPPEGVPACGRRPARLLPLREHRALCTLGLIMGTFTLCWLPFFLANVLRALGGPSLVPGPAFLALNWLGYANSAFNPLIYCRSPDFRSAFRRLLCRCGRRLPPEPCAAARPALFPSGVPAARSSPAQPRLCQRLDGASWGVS
From the text: The specific ligand binding to the receptors is defined as the difference between the total binding and the nonspecific binding determined in the presence of an excess of unlabelled ligand.

[6] = tested on: intraocular pressure; assay: night-time intraocular pressure in Dutch-Belted rabbits; type: in vivo, rabbit; settings: for increase of IOP: night-time IOP, ocular instillation
Procedure: Intraocular pressure (IOP) in rabbits is considerably higher during the night than during the day. The present experiments were conducted in Dutch-Belted rabbits in which IOP was higher during daytime as a consequence of switching the night/day cycle by exposing the animals to 12 hours of light during the night and 12 hours of darkness during daytime. […]

[7] = tested on: Meibomian gland secretion; assay: Meibomian gland secretion (Meibometer) after intravenous infusion in conscious beagle dogs; type: in vivo, dog; settings: for Meibomian gland secretion: pre-infusion 248±9 MU
Procedure: . A Meibometer (MB550, Courage-Khazaka GmbH, Koln, Germany) was used to measure the delivery rate of lipids from the Meibomian glands. The measurements were performed in conscious beagle dogs. To reduce variability all studies were performed by a single individual, who had obtained extensive training with the instrumentation and was used to the handling of conscious laboratory dogs. The methodology has been described by Benz, P., et al. 2008, which publication is hereby included by reference, although new and improved computer software was used in the present studies.

[8] = tested on: lacrimal gland secretion; assay: lacrimal secretion (Schirmer) after intravenous administration in conscious rabbits; type: in vivo, rabbit
Procedure: In short, Schirmer strips are strips of filter papers, which are in part inserted into the conjunctival sac and in part hanging out from the conjunctival sac. The Schirmer strips absorb the watery tear fluid as can be observed as wetting of the strips. The length of the wetted area is measured and is an indicator of the amount of available tear fluid in the conjunctival sac. […] The average pre-dose value (from three Schirmer readings in each animal) was compared with the average of four readings during the infusions of R-salbutamol.

[9] = tested on: Meibomian gland secretion; assay: Meibomian lipid secretion (Meibometer) after ocular instillation in conscious beagle dogs; type: in vivo, dog; settings: Day 3, 4.0 percent in saline, single eye drops three times daily; vehicle 174 MU
Procedure: A Meibometer was used to measure the delivery rate of lipids from the Meibomian glands. The measurements were performed in conscious beagle dogs and the test methodology is described above (Example 6). In these experiments, Meibomian secretion was measured in saline vehicle-treated dogs and in groups of dogs that were treated with a test article, daily at about 9 AM, 11 AM and 1 PM with single eye drops. […] Both eyes were treated and a total of six dogs were used for each treatment group.

[10] = tested on: eyes of New Zealand White rabbits; assay: ocular irritation, Draize scoring in New Zealand White rabbits
Procedure: As a vehicle control 0.1 ml of 0.9% sodium chloride for injection (B. Braun; Lot No. J9A692) was instilled in the conjunctival sac of the left eye of all the rabbits. […] Draize scoring was assessed 30 minutes, 4 hours and 24 hours after the instillations of the placebo control (saline) and the test article solutions.
The grades of ocular reaction (conjunctivae, cornea, and iris) were determined at each examination.

[11] = tested on: intraocular pressure; assay: normal intraocular pressure in Dutch-Belted rabbits; type: in vivo, rabbit; settings: 4.1% in saline, twice daily for 5 days
Procedure: Intraocular pressure was measured twice daily using the methodology stated above.

intraocular pressure lowered (vs control animals), mean±SEM ([1]; 3.5 mg/ml): 4.7±1.3 mmHg | intraocular pressure lowered (vs control animals), mean±SEM ([1]; 7.0 mg/ml): 4.6±1.0 mmHg | intraocular pressure lowered (vs control animals), mean±SEM ([1]; 14.0 mg/ml): 4.7±1.3 mmHg
SMILES: CC(C)(C)NC[C@H](O)COc1nsnc1N1CCOCC1 [timolol]

SMILES: CNCC(O)c1ccc(OC(=O)C(C)(C)C)c(OC(=O)C(C)(C)C)c1 (centres unmarked) [dipivefrin]
patients with epinephrine intolerance [2]: 3%

SMILES: CC(CCc1ccc(O)cc1)NCC(O)c1ccc(O)cc1 (racemic) [RR/SR ractopamine, ractopamine]
Meibomian gland secretion in vivo [3]: ability to increase Meibomian gland secretion in vivo

SMILES: CC(C)(C)NC[C@@H](O)c1ccc(O)c(CO)c1 [S-salbutamol]
Meibomian gland secretion in vivo [3]: may also increase Meibomian gland secretion

solubility in water [4]: readily soluble in water | affinity for beta-3 receptors [5]: practically no affinity | Δ mmHg, nighttime intraocular pressure ([6]; RS-Hi 2.0%, 1 PM): −7 mmHg | Δ mmHg, nighttime intraocular pressure ([6]; RS-Hi 2.0%, 3 PM): −4 mmHg | Δ mmHg, nighttime intraocular pressure ([6]; RS-Hi 2.0%, 5 PM): −0 mmHg | Δ mmHg, nighttime intraocular pressure ([6]; RS-Hi 2.0%, 9:00 (instillation)): 0 mmHg | Δ mmHg, nighttime intraocular pressure ([6]; RS-Hi 2.0%, 9:30): −9 mmHg | Δ mmHg, nighttime intraocular pressure ([6]; RS-Hi 2.0%, 10 AM): −9 mmHg | Δ mmHg, nighttime intraocular pressure ([6]; RS-Hi 2.0%, 11 AM): −9 mmHg | Δ mmHg, nighttime intraocular pressure ([6]; RS-Lo 0.67%, 1 PM): −5 mmHg | Δ mmHg, nighttime intraocular pressure ([6]; RS-Lo 0.67%, 3 PM): −2 mmHg | Δ mmHg, nighttime intraocular pressure ([6]; RS-Lo 0.67%, 5 PM): −0.5 mmHg | Δ mmHg, nighttime intraocular pressure ([6]; RS-Lo 0.67%, 9:00 (instillation)): 0 mmHg | Δ mmHg, nighttime intraocular pressure ([6]; RS-Lo 0.67%, 9:30): −6 mmHg | Δ mmHg, nighttime intraocular pressure ([6]; RS-Lo 0.67%, 10 AM): −6 mmHg | Δ mmHg, nighttime intraocular pressure ([6]; RS-Lo 0.67%, 11 AM): −6 mmHg
SMILES: CC(C)(C)NCC(O)c1ccc(O)c(CO)c1 (racemic) [salbutamol, a′[(tert-butylamino)methyl]-4-hydroxy-m-xylene-a,a′-diol]
increase of IOP [6]: Neither racemic nor isomeric salbutamol increased IOP

concentration dissolved in water [4]: in excess of five percent by weight | solubility in water [4]: readily soluble in water | intraocular pressure lowered (vs control animals), mean±SEM ([1]; 3.5 mg/ml): 5.5±1.3 mmHg | intraocular pressure lowered (vs control animals), mean±SEM ([1]; 7.0 mg/ml): 6.7±1.5 mmHg | intraocular pressure lowered (vs control animals), mean±SEM ([1]; 14.0 mg/ml): 5.8±1.3 mmHg | affinity for beta-3 receptors [5]: practically no affinity | Δ mmHg, nighttime intraocular pressure ([6]; R-Hi 1.0%): −11 mmHg | Δ mmHg, nighttime intraocular pressure ([6]; R-Hi 1.0%, 1 PM): −10 mmHg | Δ mmHg, nighttime intraocular pressure ([6]; R-Hi 1.0%, 3 PM): −3 mmHg | Δ mmHg, nighttime intraocular pressure ([6]; R-Hi 1.0%, 5 PM): −2 mmHg | Δ mmHg, nighttime intraocular pressure ([6]; R-Hi 1.0%, 9:00 (instillation)): 0 mmHg | Δ mmHg, nighttime intraocular pressure ([6]; R-Hi 1.0%, 9:30): −7 mmHg | Δ mmHg, nighttime intraocular pressure ([6]; R-Hi 1.0%, 10 AM): −8 mmHg | Δ mmHg, nighttime intraocular pressure ([6]; R-Lo 0.33%, 1 PM): −4 mmHg | Δ mmHg, nighttime intraocular pressure ([6]; R-Lo 0.33%, 3 PM): −3 mmHg | Δ mmHg, nighttime intraocular pressure ([6]; R-Lo 0.33%, 5 PM): −2.5 mmHg | Δ mmHg, nighttime intraocular pressure ([6]; R-Lo 0.33%, 9:00 (instillation)): 0 mmHg | Δ mmHg, nighttime intraocular pressure ([6]; R-Lo 0.33%, 9:30): −7 mmHg | Δ mmHg, nighttime intraocular pressure ([6]; R-Lo 0.33%, 10 AM): −9 mmHg | Δ mmHg, nighttime intraocular pressure ([6]; R-Lo 0.33%, 11 AM): −9 mmHg | increase in IOP [11]: No increase in IOP was observed
SMILES: CC(C)(C)NC[C@H](O)c1ccc(O)c(CO)c1 [R-salbutamol, R(−)-isomer of a′[(tert-butylamino)methyl]-4-hydroxy-m-xylene-a,a′-diol]
Meibomian gland secretion ([7]; during twenty-minute iv infusion 30 μg/kg/min): 235±23 MU | difference between pre-infusion and post-infusion secretion ([7]; iv 30 μg/kg/min for 20 min): approximately 27% | Meibomian gland secretion ([7]; ten minutes post-infusion): 316±26 MU | wetting of the Schirmer strips ([8]; during iv infusion 30 μg/kg/min for 20 min, predose 20.3±1.6, six eyes): 33.8±2.3 millimeter | increased wetting of the Schirmer strips ([8]; iv 30 μg/kg/min, versus predose): approximately 66% | Meibomian secretion, mean [9]: 304 MU | Mean Post-Instillation Irritation Score ([10]; 0.1% in saline, 4 Hours): 0 | Mean Post-Instillation Irritation Score ([10]; 0.1% in saline, 24 Hours): 0 | Mean Post-Instillation Irritation Score ([10]; 0.1% in saline, 30 Minutes): 0 | Mean Post-Instillation Irritation Score ([10]; 0.5% in saline, 4 Hours): 0 | Mean Post-Instillation Irritation Score ([10]; 0.5% in saline, 24 Hours): 0 | Mean Post-Instillation Irritation Score ([10]; 0.5% in saline, 30 Minutes): 0 | Mean Post-Instillation Irritation Score ([10]; 5.0% in saline, 4 Hours): 0 | Mean Post-Instillation Irritation Score ([10]; 5.0% in saline, 24 Hours): 0 | Mean Post-Instillation Irritation Score ([10]; 5.0% in saline, 30 Minutes): 0 | ocular irritancy ([10]; single-dose, in saline, concentrations up to 5%): not irritants | increase of IOP [6]: Neither racemic nor isomeric salbutamol increased IOP

SMILES: CNC[C@H](O)c1ccc(O)c(O)c1 [epinephrine]
patients with epinephrine intolerance [2]: 55%
